According to US9428503B2, “Imidazo[4,5-c]quinolin-2-one compounds and their use in treating Cancer” (AstraZeneca AB, priority 2014, dated 2016):
Counter-ions that a name gives are not always drawn.

Key:
Assay type in all cases: cell-based
PI3K-α = PI3K-α (Homo sapiens, UniProt P42336); assay: Assay c) PI3K cellular potency assay (phospho-Akt T308 ELISA in BT474 cells); settings: BT474 cells, phospho-Akt T308, 2 h; geometric mean where repeated; read-out: Assay c) PI3Kα Cell IC50
ATR kinase = ATR kinase (Homo sapiens (Human), UniProt Q13535); assay: Assay b) ATR cellular potency assay (pChk1 Ser345 in HT29 cells treated with 4NQO); settings: HT29 cells, pChk1 Ser345 after 4NQO; geometric mean where repeated; read-out: Assay b) ATR Cell IC50
ATM kinase = ATM kinase (Homo sapiens (Human), UniProt Q13315); assay: Assay a) ATM cellular potency assay (pATM Ser1981 in X-ray irradiated HT29 cells); settings: HT29 cells, pATM Ser1981 after X-ray irradiation; geometric mean where repeated; read-out: Assay a) ATM Cell IC50
ATM kinase, sequence (Q13315 whole entry): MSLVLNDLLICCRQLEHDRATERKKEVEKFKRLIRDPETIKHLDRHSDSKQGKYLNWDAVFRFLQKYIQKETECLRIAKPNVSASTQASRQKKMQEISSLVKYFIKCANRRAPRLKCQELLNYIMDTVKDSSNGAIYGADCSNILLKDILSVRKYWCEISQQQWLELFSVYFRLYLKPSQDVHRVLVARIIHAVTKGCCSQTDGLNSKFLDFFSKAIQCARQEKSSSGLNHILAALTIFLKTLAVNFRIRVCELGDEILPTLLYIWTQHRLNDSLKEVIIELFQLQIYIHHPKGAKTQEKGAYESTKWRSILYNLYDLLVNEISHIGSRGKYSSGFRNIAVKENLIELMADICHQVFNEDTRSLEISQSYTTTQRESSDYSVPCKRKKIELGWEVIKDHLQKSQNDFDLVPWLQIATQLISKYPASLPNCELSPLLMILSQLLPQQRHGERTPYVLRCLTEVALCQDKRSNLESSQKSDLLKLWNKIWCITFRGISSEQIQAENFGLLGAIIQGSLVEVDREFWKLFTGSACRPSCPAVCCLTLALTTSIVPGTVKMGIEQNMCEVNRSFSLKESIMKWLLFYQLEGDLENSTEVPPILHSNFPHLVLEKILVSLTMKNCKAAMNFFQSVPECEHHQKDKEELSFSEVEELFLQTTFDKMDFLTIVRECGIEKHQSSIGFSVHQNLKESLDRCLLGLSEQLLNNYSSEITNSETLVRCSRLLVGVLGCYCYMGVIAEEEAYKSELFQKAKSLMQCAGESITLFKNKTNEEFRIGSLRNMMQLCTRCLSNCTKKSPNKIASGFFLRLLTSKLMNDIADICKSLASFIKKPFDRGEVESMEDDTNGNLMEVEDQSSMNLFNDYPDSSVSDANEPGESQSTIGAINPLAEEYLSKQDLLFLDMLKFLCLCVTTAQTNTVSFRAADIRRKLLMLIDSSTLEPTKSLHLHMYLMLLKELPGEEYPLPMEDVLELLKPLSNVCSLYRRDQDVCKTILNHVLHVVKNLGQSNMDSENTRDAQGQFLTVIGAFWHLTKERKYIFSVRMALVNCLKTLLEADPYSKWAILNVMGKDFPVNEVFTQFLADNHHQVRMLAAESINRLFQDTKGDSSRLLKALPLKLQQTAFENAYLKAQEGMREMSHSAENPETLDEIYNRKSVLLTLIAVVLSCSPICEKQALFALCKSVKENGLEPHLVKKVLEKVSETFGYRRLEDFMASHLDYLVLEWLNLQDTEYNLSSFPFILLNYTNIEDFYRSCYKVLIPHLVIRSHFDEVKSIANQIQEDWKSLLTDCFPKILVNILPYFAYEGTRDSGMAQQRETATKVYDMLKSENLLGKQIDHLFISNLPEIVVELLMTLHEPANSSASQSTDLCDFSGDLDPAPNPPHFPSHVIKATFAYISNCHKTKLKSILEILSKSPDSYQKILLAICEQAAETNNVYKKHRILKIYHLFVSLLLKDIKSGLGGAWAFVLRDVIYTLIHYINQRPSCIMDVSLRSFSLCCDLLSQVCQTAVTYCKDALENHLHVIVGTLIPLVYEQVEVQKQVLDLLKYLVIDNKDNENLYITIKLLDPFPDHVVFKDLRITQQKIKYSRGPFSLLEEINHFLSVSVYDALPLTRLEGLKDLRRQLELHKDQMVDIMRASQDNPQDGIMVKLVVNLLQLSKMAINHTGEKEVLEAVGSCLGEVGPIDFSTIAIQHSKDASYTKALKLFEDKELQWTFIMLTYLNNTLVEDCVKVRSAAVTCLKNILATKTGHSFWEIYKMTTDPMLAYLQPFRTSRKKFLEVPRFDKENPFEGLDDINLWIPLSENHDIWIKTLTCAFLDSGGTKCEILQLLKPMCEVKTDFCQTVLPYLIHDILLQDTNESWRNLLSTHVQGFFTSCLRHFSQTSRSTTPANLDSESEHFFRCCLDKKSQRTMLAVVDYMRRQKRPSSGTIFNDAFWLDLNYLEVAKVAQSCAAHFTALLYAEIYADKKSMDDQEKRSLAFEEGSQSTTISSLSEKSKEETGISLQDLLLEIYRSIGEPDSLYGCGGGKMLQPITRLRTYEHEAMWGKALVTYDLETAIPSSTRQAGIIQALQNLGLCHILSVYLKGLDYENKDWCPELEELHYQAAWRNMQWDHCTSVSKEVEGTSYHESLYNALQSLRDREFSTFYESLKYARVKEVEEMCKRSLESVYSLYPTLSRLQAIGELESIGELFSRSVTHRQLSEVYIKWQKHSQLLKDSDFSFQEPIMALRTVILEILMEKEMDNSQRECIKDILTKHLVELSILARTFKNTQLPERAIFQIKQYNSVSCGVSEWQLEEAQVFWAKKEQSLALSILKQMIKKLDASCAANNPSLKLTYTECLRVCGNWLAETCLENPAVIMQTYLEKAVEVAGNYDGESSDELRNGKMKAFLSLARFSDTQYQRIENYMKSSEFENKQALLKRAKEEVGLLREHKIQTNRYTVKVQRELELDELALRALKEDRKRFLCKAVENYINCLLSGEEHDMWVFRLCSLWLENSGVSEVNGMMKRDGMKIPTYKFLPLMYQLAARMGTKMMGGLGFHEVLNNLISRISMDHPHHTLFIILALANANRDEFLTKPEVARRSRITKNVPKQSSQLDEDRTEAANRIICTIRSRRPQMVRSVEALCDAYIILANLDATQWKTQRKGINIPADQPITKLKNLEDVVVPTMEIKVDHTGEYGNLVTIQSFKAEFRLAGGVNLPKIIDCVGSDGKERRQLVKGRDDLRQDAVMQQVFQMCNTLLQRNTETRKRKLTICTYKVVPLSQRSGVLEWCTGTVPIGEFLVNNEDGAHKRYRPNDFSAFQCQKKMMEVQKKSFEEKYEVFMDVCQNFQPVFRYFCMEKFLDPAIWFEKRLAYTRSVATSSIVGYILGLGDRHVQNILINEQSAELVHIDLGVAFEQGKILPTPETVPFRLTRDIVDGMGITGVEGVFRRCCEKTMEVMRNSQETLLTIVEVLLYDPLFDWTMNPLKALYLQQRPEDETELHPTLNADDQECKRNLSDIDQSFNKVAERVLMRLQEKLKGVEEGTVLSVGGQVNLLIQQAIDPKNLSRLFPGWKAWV

mTOR = mTOR (Homo sapiens (Human), UniProt P42345); assay: Assay d) mTOR cellular potency assay (phospho-AKT Ser473 in MDA-MB-468 cells); settings: MDA-MB-468 cells, phospho-AKT Ser473, 2 h; geometric mean where repeated; read-out: Assay d) mTOR Cell IC50

PI3K-α, sequence (P42336 whole entry, looked up): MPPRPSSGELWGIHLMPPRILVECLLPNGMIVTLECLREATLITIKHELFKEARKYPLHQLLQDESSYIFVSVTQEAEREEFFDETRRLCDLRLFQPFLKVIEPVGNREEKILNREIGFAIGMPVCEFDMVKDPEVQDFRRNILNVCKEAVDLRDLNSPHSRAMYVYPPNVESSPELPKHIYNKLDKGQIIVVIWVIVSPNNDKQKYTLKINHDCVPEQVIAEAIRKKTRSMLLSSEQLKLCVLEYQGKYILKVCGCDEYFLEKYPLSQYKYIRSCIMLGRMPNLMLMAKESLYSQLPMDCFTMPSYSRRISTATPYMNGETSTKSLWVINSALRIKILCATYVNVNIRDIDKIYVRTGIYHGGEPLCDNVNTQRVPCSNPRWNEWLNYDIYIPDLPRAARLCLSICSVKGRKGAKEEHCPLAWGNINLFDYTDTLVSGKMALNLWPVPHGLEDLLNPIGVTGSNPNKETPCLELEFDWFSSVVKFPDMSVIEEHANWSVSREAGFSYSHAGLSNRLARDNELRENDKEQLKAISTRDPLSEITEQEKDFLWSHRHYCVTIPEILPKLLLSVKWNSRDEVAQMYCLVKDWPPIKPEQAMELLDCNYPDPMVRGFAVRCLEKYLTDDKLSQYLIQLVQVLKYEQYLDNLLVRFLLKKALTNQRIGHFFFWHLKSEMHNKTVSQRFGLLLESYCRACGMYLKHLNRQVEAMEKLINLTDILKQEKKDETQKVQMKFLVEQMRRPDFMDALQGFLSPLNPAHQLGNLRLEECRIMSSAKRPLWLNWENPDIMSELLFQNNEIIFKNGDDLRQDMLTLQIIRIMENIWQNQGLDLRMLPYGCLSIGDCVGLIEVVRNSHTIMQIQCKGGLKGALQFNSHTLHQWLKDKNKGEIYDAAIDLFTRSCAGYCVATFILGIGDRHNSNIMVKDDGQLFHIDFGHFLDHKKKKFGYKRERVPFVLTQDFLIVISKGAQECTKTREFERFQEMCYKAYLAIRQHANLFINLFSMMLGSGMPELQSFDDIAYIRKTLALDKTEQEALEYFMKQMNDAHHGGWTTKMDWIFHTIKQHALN

SMILES	IC50 (PI3K-α)	IC50 (ATR kinase)	IC50 (ATM kinase)	IC50 (mTOR)
CO[C@H]1C[C@@H](n2c(=O)n(C)c3cnc4cc(F)c(-c5ccc(OCCCN(C)C)nc5)cc4c32)C1 [Example 6, 8-[6-(3-dimethylaminopropoxy)pyridin-3-yl]-7-fluoro-1-(cis-3-methoxycyclobutyl)-3-methylimidazo[4,5-c]quinolin-2-one]	> 30000 nM	> 30000 nM	1.05 nM	> 16900 nM
CO[C@H]1CC[C@H](n2c(=O)n(C)c3cnc4ccc(-c5ccc(OCCCN(C)C)nc5)cc4c32)C1 [Example 26, 8-[6-(3-Dimethylaminopropoxy)pyridin-3-yl]-1-[(1S,3S)-3-methoxycyclopentyl]-3-methylimidazo[4,5-c]quinolin-2-one]	331 nM	> 21800 nM	0.152 nM	360 nM
CO[C@@H]1CC[C@@H](n2c(=O)n(C)c3cnc4ccc(-c5ccc(OCCCN(C)C)nc5F)cc4c32)C1 [Example 68, 8-[6-[3-(Dimethylamino)propoxy]-2-fluoro-3-pyridyl]-1-[(1R,3R)-3-methoxycyclopentyl]-3-methyl-imidazo[4,5-c]quinolin-2-one]	644 nM	> 29000 nM	0.208 nM	3180 nM
CN(C)CCCOc1ccc(-c2cc3c(cc2F)ncc2c3n(C3(C)CCOCC3)c(=O)n2C)cn1 [Example 3, 8-[6-(3-Dimethylaminopropoxy)pyridin-3-yl]-7-fluoro-3-methyl-1-(4-methyloxan-4-yl)imidazo[5,4-c]quinolin-2-one]	22400 nM	> 30000 nM	2.03 nM	4930 nM
CNCCCOc1ccc(-c2ccc3ncc4c(c3c2)n(C2CCOCC2)c(=O)n4C)cn1 [Example 40, 3-Methyl-8-[6-(3-methylaminopropoxy)pyridin-3-yl]-1-(oxan-4-yl)imidazo[5,4-c]quinolin-2-one]	184 nM	1330 nM	0.567 nM	191 nM
Cn1c(=O)n([C@H]2CCCOC2)c2c3cc(-c4ccc(OCCCN5CCCC5)nc4)c(F)cc3ncc21 [Example 23, 7-fluoro-3-methyl-8-[6-(3-pyrrolidin-1-ylpropoxy)-3-pyridyl]-1-[(3S)-tetrahydropyran-3-yl]imidazo[4,5-c]quinolin-2-one]	> 30000 nM	> 30000 nM	0.563 nM	18200 nM
CNCCCOc1ccc(-c2ccc3ncc4c(c3c2)n([C@@H]2CCCOC2)c(=O)n4C)cn1 [Example 43, 3-methyl-8-[6-[3-(methylamino)propoxy]-3-pyridyl]-1-[(3R)-tetrahydropyran-3-yl]imidazo[4,5-c]quinolin-2-one]	167 nM	2690 nM	0.592 nM	262 nM
CNCCCOc1ccc(-c2ccc3ncc4c(c3c2)n([C@H]2CCCOC2)c(=O)n4C)cn1 [Example 41, 3-methyl-8-[6-(3-methylaminopropoxy)pyridin-3-yl]-1-[(3S)-oxan-3-yl]imidazo[5,4-c]quinolin-2-one]	267 nM	3940 nM	0.555 nM	395 nM
Cn1c(=O)n(C2CCCOC2)c2c3cc(-c4ccc(OCCCN5CCC5)nc4)ccc3ncc21 (stereo in doubt) [Example 60, 8-[6-[3-(azetidin-1-yl)propoxy]-3-pyridyl]-3-methyl-1-[(3S)-tetrahydropyran-3-yl]imidazo[4,5-c]quinolin-2-one]	499 nM	> 24000 nM	0.765 nM	1360 nM
CN(C)CCCOc1ccc(-c2ccc3ncc4c(c3c2)n([C@H]2CCCOC2)c(=O)n4C)c(F)n1 [Example 20, 8-[6-(3-dimethylaminopropoxy)-2-fluoropyridin-3-yl]-3-methyl-1-[(3S)-oxan-3-yl]imidazo[5,4-c]quinolin-2-one]	1030 nM	> 30000 nM	0.365 nM	529 nM
Cn1c(=O)n([C@H]2C[C@@H](O)C2)c2c3cc(-c4ccc(OCCCN5CCCC5)nc4)ccc3ncc21 [Example 15, 1-(cis-3-hydroxycyclobutyl)-3-methyl-8-[6-(3-pyrrolidin-1-ylpropoxy)pyridin-3-yl]imidazo[4,5-c]quinolin-2-one]	2390 nM	> 30000 nM	0.447 nM	2580 nM
CO[C@H]1CC[C@H](n2c(=O)n(C)c3cnc4cc(F)c(-c5ccc(OCCCN(C)C)nc5)cc4c32)C1 [Example 63, 8-[6-[3-(Dimethylamino)propoxy]-3-pyridyl]-7-fluoro-1-[(1S,3S)-3-methoxycyclopentyl]-3-methyl-imidazo[4,5-c]quinolin-2-one]	3280 nM	> 30000 nM	0.31 nM	10800 nM
Cn1c(=O)n(C2CCOCC2)c2c3cc(-c4ccc(OCCCN5CCC5)nc4)ccc3ncc21 [Example 39, 8-[6-[3-(azetidin-1-yl)propoxy]pyridin-3-yl]-3-methyl-1-(oxan-4-yl)imidazo[5,4-c]quinolin-2-one]	828 nM	10700 nM	1.33 nM	1270 nM
CO[C@H]1CC[C@H](n2c(=O)n(C)c3cnc4ccc(-c5ccc(OCCCN6CCCCC6)nc5)cc4c32)C1 [Example 65, 1-[(1S,3S)-3-Methoxycyclopentyl]-3-methyl-8-[6-[3-(1-piperidyl)propoxy]-3-pyridyl]imidazo[4,5-c]quinolin-2-one]	1840 nM	> 26600 nM	0.22 nM	6340 nM
O=c1[nH]c2cnc3ccc(-c4ccc(OCCCN5CCCCC5)nc4)cc3c2n1C1CCOCC1 [Example 36, 1-(oxan-4-yl)-8-[6-(3-piperidin-1-ylpropoxy)pyridin-3-yl]-3H-imidazo[4,5-c]quinolin-2-one]	> 25000 nM	> 30000 nM	3.01 nM	10600 nM
CO[C@H]1CC[C@@H](n2c(=O)n(C)c3cnc4cc(F)c(-c5ccc(OCCCN(C)C)nc5)cc4c32)C1 [Example 70, 8-[6-[3-(dimethylamino)propoxy]-3-pyridyl]-7-fluoro-1-[(1R,3S)-3-methoxycyclopentyl]-3-methyl-imidazo[4,5-c]quinolin-2-one]	> 30000 nM	> 24900 nM	2.43 nM	> 30000 nM
CN(C)CCCOc1ccc(-c2ccc3ncc4c(c3c2)n(C2CCOCC2)c(=O)n4C)c(F)n1 [Example 21, 8-[6-(3-dimethylaminopropoxy)-2-fluoropyridin-3-yl]-3-methyl-1-(oxan-4-yl)imidazo[5,4-c]quinolin-2-one]	680 nM	> 30000 nM	0.301 nM	797 nM
Cn1c(=O)n(C2COC2)c2c3cc(-c4ccc(OCCCN5CCCCC5)nc4)ccc3ncc21 [Example 56, 3-methyl-1-(oxetan-3-yl)-8-[6-[3-(1-piperdyl)propoxy]-3-pyridyl]imidazo[4,5-c]quinolin-2-one trifluoroacetic acid salt]	> 26300 nM	> 30000 nM	3.02 nM	12400 nM
CO[C@@H]1CC[C@@H](n2c(=O)n(C)c3cnc4ccc(-c5ccc(OCCCN(C)C)nc5)cc4c32)C1 [Example 25, 8-[6-(3-Dimethylaminopropoxy)pyridin-3-yl]-1-[(1R,3R)-3-methoxycyclopentyl]-3-methylimidazo[4,5-c]quinolin-2-one]	1050 nM	> 20700 nM	0.315 nM	1190 nM
CN(C)CCCOc1ccc(-c2ccc3ncc4c(c3c2)n([C@@H]2CCCOC2)c(=O)n4C)c(F)n1 [Example 22, 8-[6-(3-dimethylaminopropoxy)-2-fluoropyridin-3-yl]-3-methyl-1-[(3R)-oxan-3-yl]imidazo[5,4-c]quinolin-2-one]	849 nM	> 30000 nM	0.552 nM	1370 nM
CN(C)CCCOc1ccc(-c2cc3c(cc2F)ncc2c3n(C3COC3)c(=O)n2C)cn1 [Example 9, 8-[6-(3-dimethylaminopropoxy)pyridin-3-yl]-7-fluoro-3-methyl-1-(oxetan-3-yl)imidazo[5,4-c]quinolin-2-one]	> 29100 nM	> 30000 nM	3.8 nM	> 21300 nM
CN(C)CCCOc1ccc(-c2ccc3ncc4c(c3c2)n([C@H]2CCOC2)c(=O)n4C)cn1 [Example 45, 8-[6-[3-(dimethylamino)propoxy]-3-pyridyl]-3-methyl-1-[(3S)-tetrahydrofuran-3-yl]imidazo[4,5-c]quinolin-2-one methanesulfonic acid salt]	260 nM	9600 nM	< 0.534 nM	1190 nM
CO[C@H]1C[C@@H](n2c(=O)n(C)c3cnc4ccc(-c5ccc(OCCCN6CCC6)nc5)cc4c32)C1 [Example 38, 8-[6-[3-(azetidin-1-yl)propoxy]pyridin-3-yl]-1-(cis-3-methoxycyclobutyl)-3-methylimidazo[4,5-c]quinolin-2-one]	729 nM	> 24400 nM	0.292 nM	2240 nM
CO[C@H]1C[C@@H](n2c(=O)[nH]c3cnc4ccc(-c5ccc(OCCCN6CCCC6)nc5)cc4c32)C1 [Example 35, 1-(cis-3-methoxycyclobutyl)-8-[6-(3-pyrrolidin-1-ylpropoxy)pyridin-3-yl]-3H-imidazo[4,5-c]quinolin-2-one]	3000 nM	17800 nM	0.589 nM	579 nM
CNCCCOc1ccc(-c2ccc3ncc4c(c3c2)n([C@H]2C[C@@H](OC)C2)c(=O)n4C)cn1 [Example 42, 1-(cis-3-methoxycyclobutyl)-3-methyl-8-[6-(3-methylaminopropoxy)pyridin-3-yl]imidazo[4,5-c]quinolin-2-one]	321 nM	4370 nM	0.249 nM	214 nM
